According to publication PMC4059138, “Structural Basis for Multiple Sugar Recognition of Jacalin-related Human ZG16p Lectin*^([image sbox.jpg])” (The Journal of Biological Chemistry, 2014):
Where two headings read alike, the source gives them in different places. One block for each molecule: values may come before it. No end group written: not given here. *: point of attachment. αMan = OC[C@H]1O[C@H](*)[C@@H](O)[C@@H](O)[C@@H]1O

Columns and labels:
[1] = target: T1, 15N-labeled human ZG16p(21–167) (Homo sapiens, UniProt O60844); assay: 1H-15N HSQC NMR titration; type: binding
T1 construct: gene ZG16; residues 21-167 (signal peptide removed), 15N-labelled, E. coli pCold-PDI vector, tag removed as for the other construct; the purification says 21-159 for the same labelled protein; monomer
T1 sequence (O60844 21-167): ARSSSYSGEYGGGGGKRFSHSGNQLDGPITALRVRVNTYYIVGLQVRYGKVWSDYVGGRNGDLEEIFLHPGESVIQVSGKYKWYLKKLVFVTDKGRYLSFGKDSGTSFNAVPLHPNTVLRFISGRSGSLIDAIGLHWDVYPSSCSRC
From the text: 1H-15N HSQC NMR titration on 15N-labeled human ZG16p(21–167)

human ZG16p(21–159) [2] = target: T2, human ZG16p(21–159) (Homo sapiens, UniProt O60844); assay: X-ray crystallography, soaking, […] Å; details: pH 6.5; mannose-binding pocket
T2 construct: gene ZG16; residues 21-159, expressed in E. coli as (His)6-MBP fusion, tag removed by TEV protease; monomer
T2 sequence (O60844 21-159): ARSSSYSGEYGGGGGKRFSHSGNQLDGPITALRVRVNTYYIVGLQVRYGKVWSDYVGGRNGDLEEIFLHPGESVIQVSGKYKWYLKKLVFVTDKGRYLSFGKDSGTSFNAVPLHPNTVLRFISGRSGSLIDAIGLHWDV

human ZG16p(21–159) [3] = target: T2, human ZG16p(21–159); assay: X-ray crystallography, soaking, […] Å; details: pH 6.5; mannose-binding pocket; remark: listed apart in the source
[4] = target: T3, Human ZG16p(21–167), 15N-labeled (human, UniProt O60844 21-167, uniformly 15N-labeled); assay: NMR titration; 1H-15N HSQC of 0.1–0.15 mM 15N-labeled ZG16p with increasing amounts of ligand; 298 K; PBS, pH 6.5, 10% D2O; Kd fitted from chemical shift changes (n = 3); details: both partners purified
T3 construct: zymogen granule protein 16 (ZG16p), human, residues 21-167; the same paragraph also calls the 15N-labeled protein ZG16p(21–159); also called zymogen granule protein 16; 15N-labeled ZG16p; source: E. coli, pCold-PDI vector, 15N-labeled Spectra 9 medium, purified (Ni-Sepharose, size exclusion chromatography)
T3 sequence (looked up): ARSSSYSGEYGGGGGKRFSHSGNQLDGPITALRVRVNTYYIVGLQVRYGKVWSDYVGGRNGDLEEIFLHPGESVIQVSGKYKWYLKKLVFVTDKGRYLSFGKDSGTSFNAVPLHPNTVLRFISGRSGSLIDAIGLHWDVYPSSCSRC

[5] = PBS pH 6.5, 10% D2O, 298 K, mannose-binding pocket

- Kd [1, 5]: 7 ± 4 mM
Molecule: OC[C@H]1O[C@@H](O[C@H]2[C@H](O)[C@@H](CO)OC(O)[C@@H]2O)[C@H](O)[C@@H](O)[C@@H]1O (stereo partly shown) [Glcβ1–3Glc]

Molecule: N[C@@H](CO[C@H]1O[C@H](CO)[C@@H](O)[C@H](O)[C@@H]1O)C(=O)O [Man-O-Ser]
- X-ray crystallography, soaking, 2.1 Å (human ZG16p(21–159) [2]): structures of human ZG16p in complex with Man-O-Ser and Man-O-Thr were determined

- Kd [1]: 19 ± 11 mM
Molecule: C[C@@H](O[C@H]1O[C@H](CO)[C@@H](O)[C@H](O)[C@@H]1O)[C@H](N)C(=O)O [Man-O-Thr]
- X-ray crystallography, soaking, 2.7 Å (human ZG16p(21–159) [3]): structures of human ZG16p in complex with Man-O-Ser and Man-O-Thr were determined

- Kd [1, 5]: 13 ± 7 mM
Molecule: OC[C@H]1O[C@H](O[C@H]2[C@H](O)[C@@H](CO)OC(O)[C@H]2O)[C@@H](O)[C@@H](O)[C@@H]1O (stereo partly shown) [Manα1–3Man]

- Kd ([1]; PBS pH 6.5, 10% D2O, 298 K, heparin site on flat surface adjacent to the mannose pocket): 2 ± 1 mM
Molecule: Heparin tetrasaccharide

- Kd [4]: 3 mM
B1: Man-α-O-heptapeptide Val-Glu-Pro-(Man-α-O-Thr)-Ala-Val-Ala (peptide)
peptide: VEPT(αMan)AVA
notes: Glycopeptide; also called Man-O-peptide; source: synthetic peptide (solid phase, Fmoc; HPLC and Sephadex G-15)
